Data: patent US8815852B2, “Carbamoyloxy arylalkan arylpiperazine analgesics” (SK Biopharmaceuticals Co., Ltd., priority 2007, dated 2014)

Experiments:
[1] = tested on: male ICR mouse; assay: Acetic acid-induced writhing test in mouse; assay type: in vivo; conditions: Mus musculus, unit not given (method doses in mg/kg), read-out: AA Writhing: ED50
How it was run: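 Male ICR mice (30 to 35 g) dosed orally at 10 mg/kg, then given 0.8% acetic acid i.p. 1 h later. Writhes counted for 10 min and expressed as % suppression against vehicle. ED50 derived by linear regression over at least three doses.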

[2] = target: 5-HT1A receptor (Rattus norvegicus (Rat), UniProt P19327); assay: Binding to 5-HT1A receptor ([3H]-8-OH-DPAT, rat cortical membranes); set-up: species or system Sprague-Dawley (SD) rats; conditions: 2 nM [3H]-8-OH-DPAT; read-out: 5-HT1A: IC50 (Concentration required to be 50% suppressed)
5-HT1A receptor, sequence (P19327 whole entry): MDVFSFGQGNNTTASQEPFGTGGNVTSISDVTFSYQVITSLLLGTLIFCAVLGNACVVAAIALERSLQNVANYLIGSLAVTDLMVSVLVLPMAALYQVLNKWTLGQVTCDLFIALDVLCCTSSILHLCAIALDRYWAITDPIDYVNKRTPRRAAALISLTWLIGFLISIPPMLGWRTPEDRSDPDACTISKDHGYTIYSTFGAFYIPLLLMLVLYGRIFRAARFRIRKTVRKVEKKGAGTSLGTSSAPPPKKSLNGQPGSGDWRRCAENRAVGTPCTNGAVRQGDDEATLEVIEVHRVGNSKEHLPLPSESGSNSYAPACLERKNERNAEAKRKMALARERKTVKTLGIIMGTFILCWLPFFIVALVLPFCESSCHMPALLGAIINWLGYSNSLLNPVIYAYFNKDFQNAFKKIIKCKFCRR
Experimental: Binding to 5-HT1A Receptor
6-week-old Sprague-Dawley (SD) rats were anesthetized in an ether container for 5 minutes, brains were separated from rats, and cortical regions were then separated from the brains of the rats. The cortical regions of the rats were put into a Tris-HCl buffer solution (50 mM, pH 7.4) and homogenized, and the homogenate was centrifuged twice at 4? at a rotary speed of 50,000 g to obtain a precipitate (membrane protein). The precipitate was put into a buffer solution, and homogenized, which was used later as a protein source. 2 nM [3H]-8-OH-DPAT was used as a radioactive isotope, and 10 uM serotonin was used to remove non-specific bindings. 25 ul of the compound, 100 ul of an aqueous radioactive isotope solution, and 100 ul of the protein source were put together, and kept at 25° C. for 1 hour. The resulting mixture was filtered with a membrane filter in a 96-well harvester when the 96-well plate reaction was completed. The competitivity of the compound to [3H]-8-OH-DPAT was determined by taking the membrane filter and measuring the radioactivity of the membrane filter in a scintillation counter, and an IC50 value was determined by measuring the increasing concentration of the compound. The specific reaction of the compound accounted for 90% or more. The general experiments were carried out according to the method by Middlemiss et al. (1984, Eur. J. Pharmacol.).

[3] = target: 5-HT2A receptor (Rattus norvegicus (Rat), UniProt P14842); assay: Binding to 5-HT2A receptor ([3H]-Ketanserin, rat cortical membranes); set-up: species or system Sprague-Dawley (SD) rats; conditions: 0.5 nM [3H]-Ketanserin; read-out: 5-HT2A: IC50 (Concentration required to be 50% suppressed)
5-HT2A receptor, sequence (P14842 whole entry): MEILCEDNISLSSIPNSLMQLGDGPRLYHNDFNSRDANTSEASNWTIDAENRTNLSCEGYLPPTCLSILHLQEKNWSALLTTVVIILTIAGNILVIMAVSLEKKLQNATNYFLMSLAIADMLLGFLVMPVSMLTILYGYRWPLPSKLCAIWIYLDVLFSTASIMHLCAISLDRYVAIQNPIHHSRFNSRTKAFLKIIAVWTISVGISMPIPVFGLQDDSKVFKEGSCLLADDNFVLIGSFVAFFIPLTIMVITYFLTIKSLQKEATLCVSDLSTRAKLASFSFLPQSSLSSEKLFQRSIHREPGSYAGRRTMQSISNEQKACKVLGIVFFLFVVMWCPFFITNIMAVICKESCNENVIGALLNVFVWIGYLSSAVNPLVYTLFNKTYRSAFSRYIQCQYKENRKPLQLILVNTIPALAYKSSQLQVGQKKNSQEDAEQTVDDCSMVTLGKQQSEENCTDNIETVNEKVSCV
Experimental: Binding to 5-HT2A Receptor
6-week-old Sprague-Dawley (SD) rats were anesthetized in an ether container for 5 minutes, brains were separated from rats, and cortical regions were then separated from the brains of the rats. The cortical regions of the rats were put into a Tris-HCl buffer solution (50 mM, pH 7.7) and homogenized, and the homogenate was centrifuged twice at 4° C. at a rotary speed of 50,000 g to obtain a precipitate (membrane protein). The precipitate was put into a buffer solution, and homogenized, which was used later as a protein source. 0.5 nM [3H]-Ketanserin was used as a radioactive isotope, and 10 uM serotonin was used to remove non-specific bindings. 25 ul of the compound, 100 ul of an aqueous radioactive isotope solution, and 100 ul of the protein source were put together, and kept at 25° C. for 1 hour. The resulting mixture was filtered with a membrane filter in a 96-well harvester when the 96-well plate reaction was completed. The competitivity of the compound to [3H]-Ketanserin was determined by taking the membrane filter and measuring the radioactivity in a scintillation counter, and an IC50 value was determined by measuring the increasing concentration of the compound. The specific reaction of the compound accounted for 90% or more. The general experiments were carried out according to the method by Leysen et al. (1982, Eur. J. Pharmacol).

[4] = tested on: male ICR mouse; assay: Formalin test - late phase in mouse; assay type: in vivo; conditions: ip, unit inferred

NC(=O)OC(CCCN1CCN(c2ccccc2)CC1)c1ccccc1 (centres unmarked) [Example 94, Carbamic acid 1-phenyl-4-(4-phenyl-piperazin-1-yl)-butyl ester]
ED50 ([1]; ip): 0.25 mg/kg
ED50 ([1]; po): 3.61 mg/kg
IC50 [2]: 89.8 nM
IC50 [3]: 514 nM
ED50 [4]: 2.79 mg/kg
